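Protocol summary: plate cells (96-well), add compound at 5 concentrations, incubate 48 h, interpolate endpoints linearly. Here, GI50 denotes the concentration required for 50% inhibition of growth.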 Calls of active or inactive are those of the source. Cut-off read from the data, not from the text of the source: active = GI50 up to about 1.1 µM and inactive = higher.
Legend:
Test in all cases: NCI-60 cell line screen, 48 h
OVCAR-4 = tested on: OVCAR-4
SR = tested on: SR
HOP-92 = tested on: HOP-92
ACHN = tested on: ACHN
SNB-19 = tested on: SNB-19
Malme-3M = tested on: Malme-3M
DU-145 = tested on: DU-145
HCT-15 = tested on: HCT-15
NCI-H23 = tested on: NCI-H23
SK-MEL-5 = tested on: SK-MEL-5
SK-MEL-28 = tested on: SK-MEL-28
SNB-75 = tested on: SNB-75
786-0 = tested on: 786-0
K562 = tested on: K562
RPMI-8226 = tested on: RPMI-8226
A549 = tested on: A549
MCF7 = tested on: MCF7
SF-295 = tested on: SF-295
BT-549 = tested on: BT-549

Measured: GI50

N#Cc1c(=O)c2ccccc2n2ccccc12
> 100 µM: HCT-15
inactive: OVCAR-4 > 100 µM | SR > 100 µM | HOP-92 > 100 µM | ACHN > 100 µM | SNB-19 83.6 µM | Malme-3M > 100 µM | DU-145 > 100 µM | NCI-H23 > 100 µM | SK-MEL-5 > 100 µM | SK-MEL-28 > 100 µM | SNB-75 > 100 µM | 786-0 > 100 µM | K562 > 100 µM | RPMI-8226 > 100 µM | A549 29.8 µM

[N-]=[N+]=NC1CC(n2ccc(N)nc2=O)OC1COP(=O)(O)OP(=O)(O)OP(=O)(O)O (configuration not stated)
inactive: OVCAR-4 > 100 µM | SR > 100 µM | MCF7 > 100 µM | ACHN > 100 µM | SNB-19 > 100 µM | Malme-3M > 100 µM | DU-145 > 100 µM | SF-295 > 100 µM | SK-MEL-5 > 100 µM | SK-MEL-28 > 100 µM | SNB-75 > 100 µM | 786-0 > 100 µM | K562 > 100 µM | RPMI-8226 > 100 µM | A549 > 100 µM
> 100 µM: HCT-15

CCOC(=O)NC(N(C)C(C(C)C)P(=O)(OCC)OCC)(C(F)(F)F)C(F)(F)F (configuration not stated)
> 100 µM: HCT-15
inactive: OVCAR-4 > 100 µM | SR > 100 µM | MCF7 > 100 µM | HOP-92 > 100 µM | ACHN > 100 µM | SNB-19 > 100 µM | Malme-3M > 100 µM | DU-145 > 100 µM | NCI-H23 > 100 µM | SF-295 > 100 µM | SK-MEL-5 > 100 µM | SK-MEL-28 > 100 µM | SNB-75 > 100 µM | 786-0 > 100 µM | K562 > 100 µM | RPMI-8226 > 100 µM | A549 > 100 µM

Cc1cc2nc3c(C#N)c(-c4ccccc4)cc(Nc4cccc(C(F)(F)F)c4)n3c2cc1C
4.73 µM: HCT-15
inactive: OVCAR-4 5.28 µM | MCF7 3.91 µM | ACHN 3.4 µM | SNB-19 4.86 µM | Malme-3M 7.87 µM | NCI-H23 5.25 µM | SF-295 7.19 µM | SK-MEL-5 3.21 µM | SK-MEL-28 9.02 µM | SNB-75 8.83 µM | 786-0 4.4 µM | BT-549 10.5 µM | RPMI-8226 1.61 µM | A549 3.18 µM
active: K562 0.392 µM

CCNc1nc(N)c(C(=O)c2cccs2)s1
14.9 µM: HCT-15
inactive: OVCAR-4 21.1 µM | MCF7 22 µM | HOP-92 41.2 µM | ACHN 22.3 µM | SNB-19 40.7 µM | Malme-3M 43.3 µM | DU-145 8.99 µM | NCI-H23 20.9 µM | SF-295 34 µM | SK-MEL-5 18.1 µM | SK-MEL-28 31 µM | SNB-75 10.4 µM | 786-0 26.6 µM | K562 25.9 µM | BT-549 20.8 µM | A549 29.8 µM

O=C1NN(c2ccccc2)C(=O)C2C3c4ccccc4C(c4ccccc43)C12 (configuration not stated)
89.1 µM: HCT-15
inactive: OVCAR-4 60 µM | SR > 100 µM | MCF7 44.2 µM | HOP-92 > 100 µM | ACHN > 100 µM | SNB-19 > 100 µM | Malme-3M 85.1 µM | DU-145 > 100 µM | NCI-H23 > 100 µM | SF-295 80 µM | SK-MEL-5 > 100 µM | SK-MEL-28 > 100 µM | SNB-75 26.1 µM | 786-0 > 100 µM | K562 43.2 µM | RPMI-8226 > 100 µM | A549 > 100 µM

Cc1nc2ccc([N+](=O)[O-])cc2c(=O)n1C(=S)Nc1cccc(Cl)c1
12.9 µM: HCT-15
inactive: OVCAR-4 19.5 µM | SR 31 µM | MCF7 17.2 µM | HOP-92 3.5 µM | ACHN 17.5 µM | SNB-19 27.8 µM | Malme-3M 21.1 µM | DU-145 28.4 µM | NCI-H23 13.8 µM | SF-295 18.3 µM | SK-MEL-5 14.1 µM | SK-MEL-28 17.6 µM | SNB-75 16.5 µM | 786-0 24.7 µM | K562 20.7 µM | RPMI-8226 4.06 µM | A549 23.2 µM

COC(=O)CCc1ccc2c(c1)CC1(C2)Cc2ccc3c(c2C1)CCC3 (configuration not stated)
inactive: OVCAR-4 49.1 µM | SR > 100 µM | MCF7 59.6 µM | HOP-92 54 µM | ACHN > 100 µM | SNB-19 > 100 µM | Malme-3M > 100 µM | DU-145 70 µM | NCI-H23 50.6 µM | SF-295 > 100 µM | SK-MEL-5 34.4 µM | SK-MEL-28 > 100 µM | SNB-75 > 100 µM | 786-0 69.8 µM | K562 38.7 µM | RPMI-8226 31.3 µM | A549 53.5 µM
59.2 µM: HCT-15

Nc1nc(Cl)c2nnn(CC3CCC(CO)C3)c2n1 (configuration not stated)
> 100 µM: HCT-15
inactive: OVCAR-4 > 100 µM | MCF7 > 100 µM | HOP-92 > 100 µM | ACHN > 100 µM | SNB-19 > 100 µM | DU-145 > 100 µM | SF-295 > 100 µM | SK-MEL-5 > 100 µM | SK-MEL-28 > 100 µM | SNB-75 > 100 µM | 786-0 > 100 µM | K562 > 100 µM | RPMI-8226 > 100 µM | A549 > 100 µM

COc1ccc(/C=N\N2C(=O)Cc3ccccc32)cc1
inactive: OVCAR-4 > 100 µM | HOP-92 22.3 µM | ACHN > 100 µM | SNB-19 > 100 µM | Malme-3M > 100 µM | NCI-H23 > 100 µM | SF-295 51.6 µM | SK-MEL-5 > 100 µM | SK-MEL-28 > 100 µM | SNB-75 17.9 µM | 786-0 > 100 µM | K562 95.5 µM | RPMI-8226 > 100 µM | A549 > 100 µM
> 100 µM: HCT-15

Cc1ccc(Cl)c2c(=O)c3ccc(N)cc3sc12
21.1 µM: HCT-15
inactive: MCF7 15.7 µM | ACHN 21.4 µM | SNB-19 27.9 µM | DU-145 26.1 µM | NCI-H23 23.9 µM | SF-295 13.5 µM | SK-MEL-5 17.5 µM | SNB-75 13.6 µM | 786-0 24.9 µM | K562 18.4 µM | BT-549 29.4 µM | RPMI-8226 15 µM | A549 24.9 µM

CCCCCCCCCCCCCCCCCCNc1ccn(C2OC(COP(=O)(O)OCC3CCC(n4cnc5c(=O)[nH]cnc54)O3)C(O)C2O)c(=O)n1 (configuration not stated)
97.5 µM: HCT-15
inactive: OVCAR-4 > 100 µM | MCF7 > 100 µM | HOP-92 > 100 µM | ACHN > 100 µM | SNB-19 > 100 µM | Malme-3M > 100 µM | DU-145 > 100 µM | NCI-H23 > 100 µM | SF-295 > 100 µM | SK-MEL-5 > 100 µM | SK-MEL-28 > 100 µM | SNB-75 > 100 µM | 786-0 43.5 µM | BT-549 > 100 µM | A549 > 100 µM

CCOC(=O)C1C/C(C)=C(/C)SCCCS1 (configuration not stated)
inactive: OVCAR-4 > 100 µM | SR 65.5 µM | MCF7 > 100 µM | HOP-92 > 100 µM | ACHN > 100 µM | SNB-19 > 100 µM | Malme-3M > 100 µM | DU-145 > 100 µM | NCI-H23 80 µM | SF-295 > 100 µM | SK-MEL-5 45.5 µM | SK-MEL-28 > 100 µM | 786-0 > 100 µM | K562 46.1 µM | RPMI-8226 58.6 µM | A549 > 100 µM
> 100 µM: HCT-15

Cc1ccc(-c2c(C#N)c(-c3ccccc3)n(NS(=O)(=O)c3ccc(C)cc3)c(=O)c2C#N)cc1
36.4 µM: HCT-15
inactive: OVCAR-4 43.5 µM | MCF7 37 µM | HOP-92 11.4 µM | ACHN 38 µM | SNB-19 50.8 µM | Malme-3M 38.6 µM | SF-295 41.3 µM | SK-MEL-5 19.2 µM | SK-MEL-28 52.1 µM | SNB-75 92.5 µM | 786-0 59.4 µM | K562 48 µM | BT-549 22.9 µM | RPMI-8226 8.36 µM | A549 55.8 µM

S=c1oc(CCCCCCCCc2nn(CNc3ccccc3)c(=S)o2)nn1CNc1ccccc1
> 100 µM: HCT-15
inactive: OVCAR-4 > 100 µM | MCF7 > 100 µM | HOP-92 > 100 µM | ACHN > 100 µM | SNB-19 > 100 µM | DU-145 > 100 µM | NCI-H23 > 100 µM | SF-295 > 100 µM | SK-MEL-5 > 100 µM | SK-MEL-28 > 100 µM | SNB-75 > 100 µM | 786-0 > 100 µM | K562 57.5 µM | BT-549 > 100 µM | RPMI-8226 > 100 µM | A549 > 100 µM

COC(=O)c1cc2c(cc1CC1Cc3cc4c(cc3C1)CCC4)CCC2
59.2 µM: HCT-15
inactive: OVCAR-4 84.7 µM | SR 19.1 µM | MCF7 25.4 µM | HOP-92 27 µM | ACHN 43.4 µM | SNB-19 93.3 µM | Malme-3M 86.5 µM | DU-145 84.7 µM | NCI-H23 44.4 µM | SF-295 55 µM | SK-MEL-5 52.6 µM | SK-MEL-28 19.5 µM | SNB-75 40.1 µM | 786-0 > 100 µM | K562 25.8 µM | RPMI-8226 21.8 µM | A549 60.4 µM

COC1/C=C\OC2(C)Oc3c(C)c(O)c4c(O)c(c(/C=N\OCCCc5ccccc5)c(O)c4c3C2=O)NC(=O)/C(C)=C\C=C/C(C)C(O)C(C)C(O)C(C)C(OC(C)=O)C1C (configuration not stated)
inactive: OVCAR-4 3.08 µM | SR 2.81 µM | MCF7 1.17 µM | HOP-92 2.15 µM | ACHN 2.56 µM | SNB-19 6.32 µM | Malme-3M 3.54 µM | DU-145 4.71 µM | NCI-H23 3.21 µM | SF-295 4.72 µM | SK-MEL-5 1.78 µM | SK-MEL-28 2.06 µM | SNB-75 2.62 µM | 786-0 3.24 µM | K562 4.16 µM | A549 3.83 µM
3.16 µM: HCT-15

— ChEMBL document CHEMBL1201862, “PubChem BioAssay data set” (2004)
